The results in this text go back to the METLIN SMRT retention time set (Domingo-Almenara et al. 2019).

SMILES strings stand for the structures.

The data set in a line: gradient 5% acetonitrile 3 min, to 50% in 2 min, to 85% in 15 min, held 3 min, 100 µL/min. Particulars: column: Zorbax Extend-C18 2.1 x 50 mm; eluents: water / acetonitrile, 0.1% formic acid. An outline of the steps:
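Using water and acetonitrile that each contained 0.1% formic acid, mixtures of ~100 pure standards were separated at 100 μL/min on a Zorbax Extend-C18 column (2.1 × 50 mm, 1.8 μm). The HPLC fed a quadrupole time-of-flight mass spectrometer working in positive and negative ionization mode, with dead and dwell volumes of 40 μL and 900 μL. Data were acquired over 3 months. Retention time was read from computationally picked adduct peaks after manual inspection of each.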
`Cn1cc(S(=O)(=O)N2CCC(C(=O)Nc3nccs3)CC2)cc1C(=O)N1CCCC1` returned an RP-LC retention time of 662 s.
Consider `CCn1c(=O)sc2cc(S(=O)(=O)N3CCC(C(=O)Nc4cc(C)ccc4C)CC3)ccc21`, for which the RP-LC retention time was 932 s.
The molecule `COC(=O)CCN(C(=O)c1ccc(OC(C)=O)cc1)c1ccccn1` had an RP-LC retention time of 668 s.
`Cc1ccc(CNC(=O)C2(C)CCN(C(=O)Nc3ccc(C)cc3Cl)CC2)cc1` displayed an RP-LC retention time of 956 s.
With `CCC1Oc2ccc(S(=O)(=O)N3CCC(C(=O)Nc4cc(C)ccc4OC)CC3)cc2NC1=O` (stereo not drawn) the figure was 936 s; with `CCn1cc(CN2CCC(C(=O)NCc3ccccc3C)CC2)c2cc(OC)ccc21`, 707 s; with `CN1C(=O)C2CCCCN2c2ccc(C(=O)NCCc3cccs3)cc21` (stereo not drawn), 872 s.
For `Cc1cc2c(cc1S(=O)(=O)N1CCCC1C(=O)Nc1cccc(Cl)c1)OCC(=O)N2` (stereo not drawn), the RP-LC retention time came out at 817 s.
The molecule `COc1cccc(NC(=O)CSc2cc(N3CCN(c4ccccc4OC)CC3)ncn2)c1` came in with an RP-LC retention time of 938 s.
With `COc1ccc(NC(=O)Cn2nc3nc(N4CCCC(C)C4)ccn3c2=O)cc1F` (stereo not drawn), the RP-LC retention time was determined as 775 s.
Take `CCOC(=O)c1c(S(=O)(=O)N2CCC(C(=O)Nc3ncccc3C)CC2)c(C)n(C)c1C`: the RP-LC retention time came to 632 s.
`O=c1n(Cc2c(F)cccc2Cl)nc2c(S(=O)(=O)N3CCc4ccccc4C3)cccn12` returned an RP-LC retention time of 975 s.
With `COc1cccc(NC(=O)N2CCC(CC(=O)N3CCCCC3)CC2)c1` the figure was 718 s; with `CN(C)c1ccc(CNC(=O)Cn2cc(-c3nnco3)c3ccccc32)cc1`, 615 s; with `CCCCOc1ccc(CNC(=O)C2CCN(Cc3cn(CC)c4ccc(OC)cc34)CC2)cc1`, 842 s.
`Cc1nc(-c2csc(S(=O)(=O)N3CCCC(C(=O)Nc4ccc(F)c(F)c4)C3)c2)no1` (stereo not drawn) yielded an RP-LC retention time of 1020 s.
With `COCC(C)(O)CNC(=O)c1ccc(F)c(F)c1` (stereo not drawn) the figure was 634 s.
With `CC1CCCN(c2ccc(-c3noc(CN4CCSCC4)n3)cn2)C1` (stereo not drawn) the figure was 856 s; with `Cc1cc(C)n(-c2ccnc(NCc3ccc(Br)cc3)n2)n1`, 946 s; with `O=C(c1cccc2c1CCN2C(=O)c1ccc(F)cc1)N1CCCCC1`, 854 s.
Take `CCN1C(=O)c2cccnc2Sc2cc(CNC(=O)c3ccc(OC)c(OC)c3)ccc21`: the RP-LC retention time was determined as 711 s.
Take `Fc1ccc(Br)cc1-c1nc2ccc(Cl)cn2c1Nc1ccc2c(c1)OCCO2`: the RP-LC retention time was 929 s.
With `CCN1C(=O)c2cccnc2Sc2cc(CNC(=O)c3ccc(C#N)cc3F)ccc21` the figure was 760 s; with `COc1ccc(NC(=O)C2CN(S(C)(=O)=O)CC23CCCCC3)c(OC)c1` (stereo not drawn), 860 s; with `O=C1C(N2CCCN(S(=O)(=O)c3cccnc3)CC2)CCN1CC1CC1` (stereo not drawn), 593 s.
`O=Cc1cn(Cc2ccc(Cl)cc2)c2ccccc12` came in with an RP-LC retention time of 968 s.
Take `O=C(NCc1noc(-c2cccc(Cl)c2)n1)c1coc(-c2ccccc2)n1`: the RP-LC retention time came to 1050 s.
In turn, `O=C(NCC(c1cccs1)N1CCc2ccccc21)c1ccco1` (stereo not drawn) yielded an RP-LC retention time of 894 s.
As for `Cc1ccc(-c2noc(-c3cccc(S(=O)(=O)NCc4ccccc4)c3)n2)cc1`, the RP-LC retention time was 1210 s.
On to `N#Cc1cccc(NC(=O)Cn2cccc(-c3nc(-c4ccccc4)no3)c2=O)c1`, for which the RP-LC retention time was 828 s.
Next, `COc1ccc(-c2nc(CNC(=O)Cn3cnc(-c4cccs4)cc3=O)cs2)cc1`: 746 s.
As for `CCCNC(=O)Cn1cnc2sc(C(=O)NC3CCCC(C)C3C)c(C)c2c1=O` (stereo not drawn), the RP-LC retention time is 857 s.
Next, `Cc1cc(N(C)C)n2nc(CN3CCN(c4ccccc4C)CC3)nc2n1`: 633 s; `CC1(C(=O)NCc2cccc(F)c2)CCCN(S(=O)(=O)c2ccc(F)cc2)C1` (stereo not drawn): 948 s; `CCN1CCC(N(Cc2cccs2)C(=O)Nc2ccc(OC)c(OC)c2)CC1`: 604 s.
For the molecule `COc1ccc(Cc2nnc3sc(-c4cnccn4)nn23)cc1`, the RP-LC retention time worked out at 730 s.
As for `O=C(Nc1c(-c2ccc(F)cc2)nc2ccccn12)c1ccc(Br)cc1`, the RP-LC retention time amounted to 716 s.
As to `CCCCN1C(=O)C(C)(C(=O)Nc2ccc(C)cc2)Oc2cccnc21` (stereo not drawn), the RP-LC retention time came out at 1060 s.
For `O=C(Nc1ccccc1)N1CCOC(CN(CC2CCCO2)C(=O)c2ccc3c(c2)OCO3)C1` (stereo not drawn), the RP-LC retention time amounted to 738 s.
With `Cc1nc(-c2cc(S(=O)(=O)N3CCC(C(=O)NCc4cccs4)CC3)c(C)s2)no1`, the RP-LC retention time came to 882 s.
Molecule `N#Cc1cccc(-c2cn3c(n2)N(C(=O)C2CCC2)CCC3)c1` registered an RP-LC retention time of 690 s.
In turn, `Cc1ccc(C)c(CS(=O)(=O)N2CCc3nc(-c4ccc(F)cc4)ncc3C2)c1` showed an RP-LC retention time of 1160 s.
`CN(C)[C@@H]1CN(C(=O)COc2ccc(Cl)cc2)C[C@H]1CO` displayed an RP-LC retention time of 598 s.
Molecule `COC(=O)c1ccc(Cn2nc(C3CCN(S(C)(=O)=O)CC3)n(C)c2=O)cc1` gave an RP-LC retention time of 642 s.
`COc1ccc(-c2nc(C3CC(=O)N(c4ccc(F)c(Cl)c4)C3)no2)cc1` (stereo not drawn) had an RP-LC retention time of 1050 s.
For `Cc1noc(C)c1-c1ccc(S(=O)(=O)NCc2ccc(Cl)cc2)cc1`, the RP-LC retention time amounted to 969 s.
With `CC(C)CCNC(=O)C1(C)CN(S(=O)(=O)c2ccccc2)CC(=O)N1c1ccc(F)cc1` (stereo not drawn) the figure was 959 s; with `COc1ccccc1-c1nc2nccc(-c3cc4ccccc4o3)n2n1`, 1010 s; with `O=C(NCC1CCN(C(=O)Oc2ccccc2)CC1)c1ccsc1`, 739 s.
Next, `CCC(C(=O)NC(C)C(=O)Nc1nc2ccccc2[nH]1)c1ccccc1` (stereo not drawn): 691 s.
As for `Cc1ccc(-c2cc3c4nnc(SCC(=O)Nc5cccc(C(F)(F)F)c5)n4ccn3n2)cc1`, the RP-LC retention time was 1040 s.
In turn, `O=C(Nc1ccc2c(c1)OCO2)c1c(O)c2cccnc2n(-c2ccccc2)c1=O` gave an RP-LC retention time of 663 s.
Take `CN(CCc1noc(COc2ccccc2F)n1)C(=O)c1c(F)cccc1F`: the RP-LC retention time was 885 s.
Turning to `O=C(c1ccc2nsnc2c1)N(Cc1ccsc1)Cc1ccco1`, the RP-LC retention time was found to be 898 s.
With `C=CCN(Cc1nc(-c2ccc(C)cc2)no1)C(=O)Nc1ccccc1C` the figure was 650 s.
Next, `CCOc1ccc(-n2cc(-c3nc(-c4cccc(OC)c4)no3)c3ccccc3c2=O)cc1`: 1390 s; `Cc1cc(C)cc(NC(=O)N2CCC(n3cnc4ccc(C)cc4c3=O)CC2)c1`: 838 s; `CC1=CS/C(=C(/C#N)C(=O)N2CCOCC2)N1c1ccccc1`: 635 s.
On to `CCn1c(=O)oc2cc(-c3noc(-c4n[nH]c5c4CCCC5)n3)ccc21`, for which the RP-LC retention time amounted to 914 s.
For `CCOc1ccc(S(=O)(=O)N2CCc3c(c(-c4nnc(SCC)n4CC)nn3C)C2)cc1`, the RP-LC retention time stood at 961 s.
Take `Cc1cc2c(c(=O)n1Cc1ccccc1)C(C(C)C)C(C#N)=C(N)O2` (stereo not drawn): the RP-LC retention time stood at 769 s.
With `CCOC(=O)c1c(C)[nH]c(C(=O)N2CCC(C(C)C(=O)N3CCOCC3)CC2)c1C` (stereo not drawn), the RP-LC retention time came out at 681 s.
For `O=C(CN1C(=O)C(C(=O)N2CCCCC2)Sc2ccccc21)NCCC1=CCCCC1` (stereo not drawn), the RP-LC retention time turned out to be 1120 s.
Next, `CCc1ccc(NS(=O)(=O)c2cc(-c3ccn[nH]3)sc2C)cc1`: 854 s; `CCOc1cccc(-c2noc(-c3nn(-c4cccc(OC)c4)ccc3=O)n2)c1`: 968 s; `Cc1nccn1CC(=O)N1CCC(OCc2nc(C3CC3)no2)CC1`: 577 s.
`CN1C(=O)[C@H]2CN(Cc3ccc(Cl)cc3F)C[C@H]2C1=O` returned an RP-LC retention time of 644 s.
With `Cc1nn(CC(=O)N2CCCCCC2)c(=O)c2nc(-c3ccccc3)sc12`, the RP-LC retention time stood at 872 s.
With `CCN1CCCn2nc(C3CCN(S(=O)(=O)c4ccc(C)c(C)c4)CC3)cc2C1=O` the figure was 891 s.
Next, `CCNc1cc(N2CCC(CCC(=O)NCc3cccc(Cl)c3)CC2)ncn1`: 678 s; `COc1ccc(-n2c(C)nc3ccc(NC(=O)c4cccc([N+](=O)[O-])c4C)cc3c2=O)cc1`: 779 s.
With `O=C(CCC1CCCN(S(=O)(=O)c2ccccc2)C1)NCc1ccc(Cl)cc1` (stereo not drawn), the RP-LC retention time was found to be 979 s.
On to `CC(C)S(=O)(=O)N1CCCC(Cn2cc(COc3ccc4c(c3)CCC4)nn2)C1` (stereo not drawn), for which the RP-LC retention time was 595 s.
In the case of `COCCNC(=O)C1CCN(C(=O)Nc2ccc(NC(=O)Nc3ccccc3)cc2)CC1`, the RP-LC retention time came out at 678 s.
`Cn1nc(-c2nc(C3CC3)no2)c2c1CCN(C(=O)c1cccc(C(F)(F)F)c1)C2` had an RP-LC retention time of 906 s.
For `COc1ccc(-c2cn3c(CC(=O)Nc4ccc(OC)cc4OC)csc3n2)cc1`, the RP-LC retention time came out at 746 s.
Next, `Cc1sc2ncnc(N3CCCC(C)C3)c2c1C(=O)Nc1cc(F)ccc1Cl` (stereo not drawn): 1450 s; `Cc1ccc(-c2nc(CN3CCN(C(=O)NC4CCCC4)CC3)c(C)o2)cc1`: 677 s.
